Data on 1 substance can be found in patent publication US4877778A, “Method of enhancing lipophile transport using cyclodextrin derivatives” (priority 1987, dated 1989).

For data set [1] the following is noted: in vivo.
Description: (§1) The infusion was therefore discontinued and 250 mL of fresh frozen plasma was administered over 3 hours.
The subject of data set [2] is patient with severe, chronic hypervitaminosis A. The following applies: human, in vivo.
Description: as §1

As for 2-hydroxypropyl-β-cyclodextrin, in data set [1], the LDM turned out to be 536 U/L; the “Serum pH and concentrations of glucose, protein, albumin, calcium, phosphate, and hepatic transaminases” value is given as “remained normal throughout the infusion”; the chloride turned out to be 107 M EQ/L; the sodium came to 138 M EQ/L. Moreover, the symptoms during infusion result in data set [2] was “generalized irritability and pain in the legs and shins”.
